# According to patent publication US5108916A, “Process for stereoselectively hydrolyzing, transesterifying or esterifying with immobilized isozyme of lipase from Candida rugosa” (priority 1989, dated 1992):
# “And” between values parts separate entries of the source, which are not always exact repeats. Identical values can stand only once. Like-named read-outs stand apart in the source and are kept apart here.
# Columns and labels:
# CSC-2 = test: Effect of additives and solvents on hydrolysis of ketoprofen monoglyceride by CSC-2; format: biochemical, Candida rugosa; conditions: for % ee S-acid: 23 hr, 200 ul; for Isolated % ee (S-Acid): extraction procedure I for oleic acid and corn oil, II for the others; for % ee: as E102
# Experimental: Hydrolysis of ketoprofen-monoglyceride (50mg) was carried out in various DMF-100mM (NH4)H2 PO4 buffer (pH 5.5) mixtures. In each flask a solution of ketoprofen monoglyceride (50mg) in DMF (200ul) was added. DMF was added followed by 100mM (NH4)H2 PO4 buffer. […] After 22 hours, 2%, 5%, and 10% DMF samples were acidified, extracted with CHCl3 (2×10ml) and analyzed. The other samples were analyzed directly as in Example 18. The acid produced decreases with increasing amount of DMF.
# Small amounts of DMF were added to the reaction mixture to increase the solubility of KPG. In all cases 100mM ammonium phosphate buffer (pH 5.5) was used and 2% (v/v) detergents were added and the total volume was 10ml.
# The buffer reaction (entry #2 in the table) contained enzyme in buffer (2 ml) and the buffer only (entry #1 in the table) reaction contained no enzyme.
# The presence of a surfactant like Tween increases the solubility o lipophilic compounds in water. […] Tween 80 was added to make 1% and 2% solution (v/v). Bovine serum albumin (BSA) (10mg) was added to each of two flasks. A solution of 50mg of ketoprofen monoglyceride in 200ul DMF was added to each. After 20 hours at 250 rpm and 35° C. the reaction mixtures were acidified, extracted and analyzed by the usual HPLC procedure as in Example 18.
# Various surfactants were used at 2% of the reaction volume to determine their effect on the enzymatic reaction involving the conversion of ketoprofen monoglyceride (KPG) to ketoprofen (KP). […] Flasks were covered with parafilm and incubated in a 35° C. water bath at 250 rpm, typically overnight. Reactions were stopped by acidification, extracted with CHCl3 (2×10 ml). The %acid and %ee were determined by the method of Example 18. It is to be noted that Hydrophile-Lipophile Balance (HLB) values have no apparent bearing on the ability of the surfactant to enhance the conversion of KPG to KP.
# 75 mg of KPG (in the absence of DMF) was individually weighed into 50 ml Erlenmeyer flasks. […] 9 ml of 100 mM (NH4)H2 PO4, pH 5.5 buffer was added, and the flasks were placed into a 35° C., 250 rpm water bath incubator for 20 hours. The reactions were acidified, extracted with CHCl3 and examined by HPLC as in Example 18. The %ee was determined as per Example 18.
# Various amounts of oleic acid or its esters were added, and the reactions stopped at the times indicated, acidified, extracted with CHCl3 and analyzed as in Example 18.
# An experiment was performed as in Example 41, but using 100, 200 and 500 ul of olive oil to determine if it would enhance the rate of conversion of KPG to KP. […] After 20 hours, all reactions were acidified, extracted with CHCl3 and analyzed by HPLC as in Example 18. The results are given below:
# 50 mg of KPG was weighed into Erlenmeyer flasks. […] Flasks were incubated at 35° C., 250 rpm for 23 hours. The reactions were stopped by acidification, extracted with CHCl3, and analyzed by HPLC as in Example 18. The additive is listed along with its percentage composition of glycerides of oleic acid.
# To determine the problems associated with having oleic acid or oleate. esters in the reaction media, the following experiment was performed. […] Flasks were placed in a 35° C. incubator at 250 rpm, and the reactions were sampled by taking 200 ul aliquots at various time points. These aliquots were analyzed by HPLC (ODS-3 RAC column, CH3 OH: 10 mM (NH4)H2 PO4 (60:40) eluant, 4 ml/min, 254 nm detection) to determine the course of reaction. When approximately 40% acid was produced, the reactions were stopped by placing the flasks in the -70° C. freezer. Two extraction procedures were utilized to determine the best method of isolating S-Ketoprofen free of oleic acid. The first (listed as Extraction Procedure I in the following table) involved first making the solution basic (pH 10) with NaOH, then extracting with hexane, then CHCl3.
# [1] = Conversion of ketoprofen esters in organic solvent/oleic acid media; format: biochemical
# Experimental: To optimize the organic solvent used in the presence of oleic acid a variety of organic solvents were used, along with a variety of ketoprofen esters. In this experiment, 50 mg of ketoprofen esters were weighed into flasks, along with 1 ml of oleic acid and 9 ml of an organic solvent. The flasks were capped and incubated at 35° C., 250 rpm, for 10-26 hours before stopping the reaction by first adding 4 ml CHCl3 to solubilize the substrates and products, then filtering through a 0.2 um Gelman Nylaflo filter. Samples were then diluted in methanol and analyzed by HPLC as in Example 18. The experiment was also performed using 200 ul of oleic acid and 10ml buffer, which was acidified, extracted with CHCl3 and analyzed by HPLC as above.
# One ml of oleic acid was added, as was 9 ml of buffer (100 mM (NH4)H2 PO4, pH 5.5) or organic solvent. Flasks were placed into a 35° C. incubator and shaken at 250 rpm for 13 hours. Reaction was stopped by adding 5 ml CHCl3 to solubilize the organic material and filtering the solutions using 0.2 um Gelman Nylaflo membranes to remove the enzyme. Samples were analyzed on an ODS-3 RAC column using CH3 OH:10 mM (NH4)H2PO4 (60:40) as eluant, flow rate 4 ml/min, and detection at 254 nm. %ee was determined by the resolution of diastereomeric amides on the above HPLC system, as per Example 18.
# [2] = 200 ul DMF, b1067-b1069 18 hr, b1070-b1084 23 hr, amounts: 200 ul except tributyrin, dilinolein, trilinoein 100 ul, monostearin, distearin 25 ul, tristearin 28 ul, 0 = CSC-2 alone
# [3] = surfactant 2% of reaction volume, 200 ul DMF, enzyme alone = 100
# [4] = 18 hr with 100 ul (b930-b936), 23 hr with 200 ul (b937-b944), None = CSC-2 alone
# [5] = solvent/buffer 1:1 two phase, 16 hour reactions
# [6] = 5 g KPG, 50 mg CSC-2, 5 grams additive
# [7] = additive 100 ul, 75 mg KPG, no DMF, 20 hours
# [8] = additive 200 ul, 75 mg KPG, 20 hours
# [9] = additive 500 ul, 75 mg KPG, 20 hours
# [10] = solvent/buffer 1:1 two phase, 26 hours, buffer = 100
compound,measurement,setting,value
CCCCCCCCCCCCCCCCCC(=O)OCC(COC(=O)CCCCCCCCCCCCCCCCC)OC(=O)CCCCCCCCCCCCCCCCC [tristearin],% Acid,CSC-2; [2],25%
COC(=O)C(C)c1cccc(C(=O)c2ccccc2)c1 (stereo not shown) [Methyl ester],% ee,"[1]; Buffer 10 ml, OA 200 ul",96%
same,% Acid,"[1]; Buffer 10 ml, OA 200 ul, enzyme not named in Example 55",2%
same,% Acid,"[1]; CHCl3 9 ml, OA 1 ml",0%
same,% Acid,"[1]; Hexane 9 ml, OA 1 ml, 10-26 hours",0.8%
same,% Acid,"[1]; Isooctane 9 ml, OA 1 ml",2%
same,% ee,"[1]; Isooctane 9 ml, OA 1 ml, * stopped at 10 Hr",93%
same,% Acid,"[1]; Toluene 9 ml, OA 1 ml",0%
POE-20 stearyl ether [Brij 78],Relative Rate,CSC-2; [3],14
CCCCCCCC/C=C\CCCCCCCC(=O)OC [oleic acid methyl ester],% Acid,CSC-2; [4],51%
same,% ee S-acid,CSC-2; None = CSC-2 alone,97%
same,Rate,CSC-2; as E158,3
ClCCCl [Ethylene dichloride],Relative Rate,CSC-2; [5],0
CCCCCCCC/C=C\CCCCCCCC(=O)O [oleic acid],Final % Acid,CSC-2; [6],39%
same,Rate,CSC-2; [6],1.2 µmol/h/mg
same,% Acid,CSC-2; [4],47%
same,% ee S-acid,CSC-2; None = CSC-2 alone,96%
same,Rate,CSC-2; as E158,3
same,Isolated % ee (S-Acid),CSC-2,88%
sorbitan sesquioleate [Arlacel 83],% Acid,CSC-2; [7],30%
same,S-acid (% ee),CSC-2; additive 200 ul,99
same,% Acid,CSC-2; [8],30%
same,% Acid,CSC-2; [9],29%
same,Relative Rate,CSC-2; [3],172
CCCCC/C=C\C/C=C\CCCCCCCC(=O)OCC(COC(=O)CCCCCCC/C=C\C/C=C\CCCCC)OC(=O)CCCCCCC/C=C\C/C=C\CCCCC [trilinoein],% Acid,CSC-2; [2],20%
CCC(=O)CC [3-Pentanone],Relative Rate,CSC-2; [5],0
CCOCC [Ethyl ether],Relative Rate,"CSC-2; pH 5.5, 960 min",0
Tween 80,Final % Acid,CSC-2; [6],34.9%
same,Rate,CSC-2; [6],0.46 µmol/h/mg
same,Relative Rate,"CSC-2; 20 hours, b844=no Tween no BSA, b846=1% Tween and BSA, b848=2% Tween and BSA, b850=2% Tween no BSA, 1200 min",114 and 142 and 118
same,% Acid,CSC-2; [7],12%
same,S-acid (% ee),CSC-2; additive 200 ul,96
same,% Acid,CSC-2; [8],22%
same,% Acid,CSC-2; [9],18%
same,% ee,CSC-2,96% and 92% and 86% and 97% and 93%
same,ee of S-acid,CSC-2; as E149,95% and 96%
same,Isolated % ee (S-Acid),CSC-2,94.3%
same,Relative Rate,CSC-2; [3],136
CCCCCCCCO [n-Octanol],Relative Rate,CSC-2; [5],0
CCCCC/C=C\C/C=C\CCCCCCCC(=O)OCC(O)COC(=O)CCCCCCC/C=C\C/C=C\CCCCC [dilinolein],% Acid,CSC-2; [2],20%
Tween 60,Relative Rate,CSC-2; [3],23
CCCCCCCC/C=C\CCCCCCCC(=O)OCC(O)CO (stereo not shown) [Monolein],% Acid,CSC-2; [4],43%
same,Rate,CSC-2; as E158,4
CCCCC/C=C\C/C=C\CCCCCCCC(=O)OC [linoleic acid methyl ester],% Acid,CSC-2; [2],34%
CCCC(=O)OCC(COC(=O)CCC)OC(=O)CCC [tributyrin],% Acid,CSC-2; [2],3%
Diolein,% Acid,CSC-2; [4],42%
same,Rate,CSC-2; as E158,4
CC(=O)OCC(COC(C)=O)OC(C)=O [Triacetin],% Acid,CSC-2; [2],12%
Span 20,Relative Rate,CSC-2; [3],75
ClC(Cl)Cl [Chloroform],Relative Rate,"CSC-2; pH 5.5, 960 min",0
CCCCC/C=C\C/C=C\CCCCCCCC(=O)O [linoleic acid],% Acid,CSC-2; [2],21%
Span 40,Relative Rate,CSC-2; [3],99
CC(C)OC(C)C [Isopropyl ether],EE of S-acid,"CSC-2; solvent/buffer 1:1 two phase, 26 hours",69%
same,Relative Rate,CSC-2; [10],53
Span 85,Final % Acid,CSC-2; [6],28.9%
same,Rate,CSC-2; [6],0.87 µmol/h/mg
same,% Acid,CSC-2; [7],28%
same,S-acid (% ee),CSC-2; additive 200 ul,96
same,% Acid,CSC-2; [8],33%
same,% Acid,CSC-2; [9],34%
same,% ee,CSC-2,93% and 96% and 95% and 97%
same,Isolated % ee (S-Acid),CSC-2,95.1%
same,Relative Rate,CSC-2; [3],181
Tween 65,Relative Rate,CSC-2; [3],39
CCCCCCCC/C=C\CCCCCCCC(=O)OCC(COC(=O)CCCCCCC/C=C\CCCCCCCC)OC(=O)CCCCCCC/C=C\CCCCCCCC [triolein],% Acid,CSC-2; [4],38%
same,Rate,CSC-2; as E158,3
Span 60,Relative Rate,CSC-2; [3],108
O=C1CCCCC1 [Cyclohexanone],Relative Rate,CSC-2; [5],0
CCc1ccccc1 [Ethylbenzene],EE of S-acid,CSC-2,48%
same,Relative Rate,CSC-2; [10],18
CC/C=C\C/C=C\C/C=C\CCCCCCCC(=O)O [linolenic acid],% Acid,CSC-2; [2],13%
Tween 20,Relative Rate,CSC-2; [3],39
CCCCCCO [n-Hexanol],Relative Rate,CSC-2; [5],0
Tween 85,Relative Rate,CSC-2; [3],27
Tween 61,Relative Rate,CSC-2; [3],92
POE-2 oleyl ether [Brij 92],Relative Rate,CSC-2; [3],27
POE-10 stearyl ether [Brij 76],Relative Rate,CSC-2; [3],18
CCCCCCCC/C=C\CCCCCCCC(=O)OCC [oleic acid ethyl ester],% Acid,CSC-2; [4],52%
same,% ee S-acid,CSC-2; None = CSC-2 alone,96%
same,Rate,CSC-2; as E158,4
CCOC(C)=O [Ethyl acetate],Relative Rate,CSC-2; [5],0
CCCCO [n-Butanol],Relative Rate,CSC-2; [5],0
OCc1ccccc1 [Benzyl alcohol],Relative Rate,CSC-2; [5],0
CCCCCCCCCCCCCCCCCC(=O)OCC(O)COC(=O)CCCCCCCCCCCCCCCCC [distearin],% Acid,CSC-2; [2],30%
POE-23 lauryl ether [Brij 35],Relative Rate,CSC-2; [3],26
CCCCCCCCCCCCCCCCCC(=O)OCC(O)CO (stereo not shown) [monostearin],% Acid,CSC-2; [2],31%
CCCCC/C=C\C/C=C\CCCCCCCC(=O)OCC [Linoleic acid ethyl ester],% Acid,CSC-2; [2],26%
Span 80,% Acid,CSC-2; [7],27%
same,S-acid (% ee),CSC-2; additive 200 ul,97
same,% Acid,CSC-2; [8],28%
same,% Acid,CSC-2; [9],27%
same,Relative Rate,CSC-2; [3],160
POE-20 oleyl ether [Brij 99],Relative Rate,CSC-2; [3],15
POE-2 stearyl ether [Brij 72],Relative Rate,CSC-2; [3],106
Tween 40,Relative Rate,CSC-2; [3],29
ClCCl [Dichloromethane],Relative Rate,CSC-2; [5],0
POE-10 oleyl ether [Brij 96],Relative Rate,CSC-2; [3],27
